From US8722727B2, “Antifungal agents” (Seynix, Inc., priority 2008, dated 2014)

molecular target: T1, glucan synthase (GS) (Candida albicans, UniProt O13428); assay: Glucan synthase inhibition (polymerization assay, 96-well); format: biochemical; conditions: glucan synthase prepared from Candida albicans MY1055; 60 min incubation at 22° C.; read-out: Candida Albicans GS IC50 (ng/mL) (converted)
T1 construct: Extraction of GS activity from membranes was performed at a protein concentration of 5 mg/mL in extraction buffer; endogenous in cells; host or cells: Candida albicans MY1055 (membrane fraction, detergent extraction, product entrapment)
Protocol: The in vitro evaluation of glucan synthase inhibitory activity of compounds was measured in a polymerization assay in 96-well format. Each well contained 100 μL of ^3H-UDPG at 0.5 mM (6000 to 8000 dpm/nmol), 50 mM HEPES pH 7.5 (Sigma), 10% w/v glycerol (Sigma), 1.5 mg/mL bovine serum albumin (Sigma A 9647. Lot 44H0190), 25 mM KF (Fisher), 1 mM EDTA (Gibco ULTRAPURE), 25 μM GTP-γ-S, enzyme sufficient to give 3 to 6 nmoles incorporation during the 60 min incubation at 22° C., and test compound added from wells in 3-fold serial dilutions in 100% DMSO (1 μL/well). The reaction was stopped by the addition of 100 μL of 20% trichloroacetic acid. Plates were chilled for a minimum of 10 min, and precipitated glucan collected by filtration on GF/C plates (Packard UNIFILTER®-96), washed with 5 cycles of water (about 1 mL/well each cycle) using a Packard FILTERMATE HARVESTER. 40 μL/well scintillation fluid (Packard ULTIMA GOLD TM-XR) was added and the sealed plates counted in a WALLAC BETA counter in top-counting mode at an efficiency of approximately 40%.
Stock solutions were stored at 10 mg/mL in DMSO at −20° C. For each new enzyme preparation, the initial titration performed started at 1 mg/mL, which was prepared by making a 10-fold dilution in DMSO (5 μL to 50 μL). 40 μL of this stock was placed in column 12 of a round-bottomed 96-well microtiter plate. 40 μL DMSO was added to columns 1 to 11 in the same row and ten 3-fold serial dilutions performed, by transferring 20 μL from column 12 to column 11 etc., with 4 mixings before each transfer. No test compound was transferred to from column 2 to column 1. Duplicate aliquots of 1 μL of all 12 dilutions were then transferred to the side walls of a 96-well Bioblock 1.1 mL plate (Fisher brand) to create two rows. Graphs of the primary data were created in PRISM software (the average of two determinations) using PRISM's curve fitting program (sigmoidal dose response non-linear regression). The amount of compound required to inhibit glucan synthase activity by 50% in this assay (IC50-ng/mL) was calculated.
Routine analysis was performed with glucan synthase (GS) prepared from Candida albicans MY1055 by the following procedure: MY1055 was grown in 10 liters YPD medium (10 g yeast extract, 20 g tryptone, 20 g glucose per liter) with vigorous shaking at 30° C., to early stationary phase. Cells were harvested by centrifugation, the pellet was washed and frozen at −70° C. until breakage. Thawed pellets were shaken with an equal volume of breakage buffer (50 mM HEPES pH 7.4, 10% glycerol, 1 mM EDTA, 1 mM PMSF, 1 mM DTT) and 4 times their weight of 0.5 mm acid washed glass beads for 2 hours at 4° C. Extent of breakage was assessed visually at 40× magnification. After low speed centrifugation to remove cell debris, the supernatant was centrifuged at 100,000×g for 60 min. to separate membranes plus ribosomes from cytoplasmic components. Membranes were further washed two additional times with breakage buffer using the same centrifugation conditions and finally suspended in breakage buffer at 25 to 30 mg/mL protein (Biorad) for storage at −70° C. Extraction of GS activity from membranes was performed at a protein concentration of 5 mg/mL in extraction buffer (50 mM NaPO4 pH 7.5, 0.1 M KCl, 0.1M Na citrate, 20% glycerol, 5 μM GTP-γ-S, 1 mM DTT, 1 mM PMSF, 3 μg/mL pepstatin) plus 0.25% W1 by gentle mixing at 4° C. for 60 min, followed by centrifugation at 100,000×g for 60 min. After centrifugation, clear supernatant was removed from a pellet consisting of a hard layer usually with small amounts of gelatinous unextracted membranes above it.
Trapping was initiated immediately by 5-fold dilution in trapping buffer (50 mM HEPES pH 7.5, 10 mM KF, 1 mM EDTA, 2 mg/mL BSA) plus 2.5 mM UDPG and 10 μM GTP-γ-S. After incubation at 25° C. for 60 to 90 minutes, glucan was harvested by low speed centrifugation (3,000×g, 10 min). […]

T1 sequence (O13428 1-1897): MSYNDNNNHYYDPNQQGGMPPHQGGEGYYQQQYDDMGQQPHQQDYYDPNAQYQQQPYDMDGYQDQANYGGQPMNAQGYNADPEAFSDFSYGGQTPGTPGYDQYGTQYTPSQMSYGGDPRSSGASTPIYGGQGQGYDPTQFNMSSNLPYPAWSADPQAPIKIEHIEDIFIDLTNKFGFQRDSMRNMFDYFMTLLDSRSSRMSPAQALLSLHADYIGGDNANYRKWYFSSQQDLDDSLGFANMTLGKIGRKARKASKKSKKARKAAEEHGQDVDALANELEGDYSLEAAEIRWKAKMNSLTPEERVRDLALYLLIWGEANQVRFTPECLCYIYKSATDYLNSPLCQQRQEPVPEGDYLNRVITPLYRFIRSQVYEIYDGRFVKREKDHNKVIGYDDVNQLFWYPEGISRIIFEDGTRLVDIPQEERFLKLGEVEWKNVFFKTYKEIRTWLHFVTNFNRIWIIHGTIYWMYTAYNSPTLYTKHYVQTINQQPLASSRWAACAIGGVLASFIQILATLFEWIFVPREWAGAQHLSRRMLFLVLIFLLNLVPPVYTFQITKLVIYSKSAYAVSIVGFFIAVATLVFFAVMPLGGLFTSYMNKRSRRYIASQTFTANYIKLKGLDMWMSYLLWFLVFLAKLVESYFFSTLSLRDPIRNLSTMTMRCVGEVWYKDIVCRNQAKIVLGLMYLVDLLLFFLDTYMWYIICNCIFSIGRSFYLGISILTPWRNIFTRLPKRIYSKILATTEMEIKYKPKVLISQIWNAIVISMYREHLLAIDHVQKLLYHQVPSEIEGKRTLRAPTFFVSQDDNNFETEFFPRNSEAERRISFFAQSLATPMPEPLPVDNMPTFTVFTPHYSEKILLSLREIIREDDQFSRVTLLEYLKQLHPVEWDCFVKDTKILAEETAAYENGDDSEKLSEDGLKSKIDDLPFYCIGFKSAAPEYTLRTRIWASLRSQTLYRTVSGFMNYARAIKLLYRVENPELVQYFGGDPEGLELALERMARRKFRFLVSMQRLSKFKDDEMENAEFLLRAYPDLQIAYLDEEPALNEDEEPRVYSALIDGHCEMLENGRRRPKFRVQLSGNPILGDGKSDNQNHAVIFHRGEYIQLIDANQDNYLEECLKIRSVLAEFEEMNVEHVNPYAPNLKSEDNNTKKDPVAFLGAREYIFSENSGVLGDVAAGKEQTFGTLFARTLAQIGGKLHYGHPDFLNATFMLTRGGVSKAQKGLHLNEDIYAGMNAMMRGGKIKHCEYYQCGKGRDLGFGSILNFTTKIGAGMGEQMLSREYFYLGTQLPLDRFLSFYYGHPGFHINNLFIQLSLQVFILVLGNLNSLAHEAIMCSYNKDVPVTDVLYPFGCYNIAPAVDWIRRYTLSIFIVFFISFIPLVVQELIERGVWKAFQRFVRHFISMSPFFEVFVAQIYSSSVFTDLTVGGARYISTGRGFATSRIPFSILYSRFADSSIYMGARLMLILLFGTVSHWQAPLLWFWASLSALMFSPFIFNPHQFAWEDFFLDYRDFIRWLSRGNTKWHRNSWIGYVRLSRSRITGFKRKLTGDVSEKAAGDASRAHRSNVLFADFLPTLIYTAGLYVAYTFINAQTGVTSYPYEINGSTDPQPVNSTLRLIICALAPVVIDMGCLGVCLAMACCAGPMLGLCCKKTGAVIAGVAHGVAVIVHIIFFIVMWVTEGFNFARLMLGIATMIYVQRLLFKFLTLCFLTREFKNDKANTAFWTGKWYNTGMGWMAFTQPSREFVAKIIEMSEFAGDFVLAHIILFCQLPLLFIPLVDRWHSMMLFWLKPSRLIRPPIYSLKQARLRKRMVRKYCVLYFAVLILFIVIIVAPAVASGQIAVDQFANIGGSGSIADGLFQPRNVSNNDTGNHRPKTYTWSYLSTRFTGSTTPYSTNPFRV
T1 sequence (O42825 1-195 partner limits assumed): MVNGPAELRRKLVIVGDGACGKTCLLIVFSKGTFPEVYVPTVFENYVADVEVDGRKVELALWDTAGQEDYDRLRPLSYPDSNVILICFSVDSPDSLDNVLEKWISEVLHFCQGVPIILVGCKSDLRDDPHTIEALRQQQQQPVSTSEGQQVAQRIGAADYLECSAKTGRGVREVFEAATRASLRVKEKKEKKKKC

Row | IC50 [nM] | Structure (SMILES)
1 | 13.2 | CCN[C@H](CO[C@H]1[C@H](n2nnc(N)n2)C[C@@]23COC[C@]1(C)[C@@H]2CC[C@H]1C3=CC[C@@]2(C)[C@H](C(=O)O)[C@@](C)([C@H](C)C(C)C)CC[C@]12C)C(C)(C)C [Example 97, (1S,4aR,6aS,7R,8R,10aR,10bR,12aR,14R,15R)-14-(5-amino-2H-tetrazol-2-yl)-15-[[(2S)-2-(ethylamino)-3,3-dimethylbutyl]oxy]-8-[(1R)-1,2-dimethylpropyl]-1,6,6a,7,8,9,10,10a,10b,11,12,12a-dodecahydro-1,6a,8,10a-tetramethyl-4H-1,4a-propano-2H-phenanthro[1,2-c]pyran-7-carboxylic acid]
2 | 85.1 | CC(C)[C@@H](C)[C@@]1(C)CC[C@]2(C)[C@H]3CC[C@@H]4[C@@]5(COC[C@@]4(C)[C@@H](OC[C@](C)(N)C(C)C)[C@H](n4nnc(CO)n4)C5)C3=CC[C@@]2(C)[C@@H]1C(=O)O [Example 43B, (1S,4aR,6aS,7R,8R,10aR,10bR,12aR,14R,15R)-15-[[(2R)-2-amino-2,3-dimethylbutyl]oxy]-8-[(1R)-1,2-dimethylpropyl]-14-[5-(hydroxymethyl)-2H-tetrazol-2-yl]-1,6,6a,7,8,9,10,10a,10b,11,12,12a-dodecahydro-1,6a,8,10a-tetramethyl-4H-1,4a-propano-2H-phenanthro[1,2-c]pyran-7-carboxylic acid]
3 | 60.7 | CCCCCC(C)(CO[C@H]1[C@H](n2nnc(N)n2)C[C@@]23COC[C@]1(C)[C@@H]2CC[C@H]1C3=CC[C@@]2(C)[C@H](C(=O)O)[C@@](C)([C@H](C)C(C)C)CC[C@]12C)NCCC (stereo partly drawn) [Example 120, (1S,4aR,6aS,7R,8R,10aR,10bR,12aR,14R,15R)-14-(5-amino-2H-tetrazol-2-yl)-8-[(1R)-1,2-dimethylpropyl]-15-[[2-methyl-2-(propylamino)heptyl]oxy]-1,6,6a,7,8,9,10,10a,10b,11,12,12a-dodecahydro-1,6a,8,10a-tetramethyl-4H-1,4a-propano-2H-phenanthro[1,2-c]pyran-7-carboxylic acid]
4 | 16.5 | CC(C)[C@@H](C)[C@@]1(C)CC[C@]2(C)[C@H]3CC[C@@H]4[C@@]5(COC[C@@]4(C)[C@@H](OC[C@@H](C4CC4)N(C)C)[C@H](n4nnc(N)n4)C5)C3=CC[C@@]2(C)[C@@H]1C(=O)O [Example 83, (1S,4aR,6aS,7R,8R,10aR,10bR,12aR,14R,15R)-14-(5-amino-2H-tetrazol-2-yl)-15-[(2R)-2-cyclopropyl-2-(dimethylamino)ethoxy]-8-[(1R)-1,2-dimethylpropyl]-1,6,6a,7,8,9,10,10a,10b,11,12,12a-dodecahydro-1,6a,8,10a-tetramethyl-4H-1,4a-propano-2H-phenanthro[1,2-c]pyran-7-carboxylic acid]
5 | 20.9 | CCC[C@H](CO[C@H]1[C@H](n2nnc(N)n2)C[C@@]23COC[C@]1(C)[C@@H]2CC[C@H]1C3=CC[C@@]2(C)[C@H](C(=O)O)[C@@](C)([C@H](C)C(C)C)CC[C@]12C)N(C)C [Example 77, (1S,4aR,6aS,7R,8R,10aR,10bR,12aR,14R,15R)-14-(5-amino-2H-tetrazol-2-yl)-15-[[(2R)-2-(dimethylamino)pentyl]oxy]-8-[(1R)-1,2-dimethylpropyl]-1,6,6a,7,8,9,10,10a,10b,11,12,12a-dodecahydro-1,6a,8,10a-tetramethyl-4H-1,4a-propano-2H-phenanthro[1,2-c]pyran-7-carboxylic acid]
6 | 28.1 | CCCN(C)[C@](C)(CO[C@H]1[C@H](n2nnc(N)n2)C[C@@]23COC[C@]1(C)[C@@H]2CC[C@H]1C3=CC[C@@]2(C)[C@H](C(=O)O)[C@@](C)([C@H](C)C(C)C)CC[C@]12C)C(C)C [Example 69, (1S,4aR,6aS,7R,8R,10aR,10bR,12aR,14R,15R)-14-(5-amino-2H-tetrazol-2-yl)-15-[[(2S)-2,3-dimethyl-2-(methylpropylamino)butyl]oxy]-8-[(1R)-1,2-dimethylpropyl]-1,6,6a,7,8,9,10,10a,10b,11,12,12a-dodecahydro-1,6a,8,10a-tetramethyl-4H-1,4a-propano-2H-phenanthro[1,2-c]pyran-7-carboxylic acid]

Second part, the compound before the results:

Row | Structure (SMILES) | IC50 [nM]
7 | CC(C)C(C(C)O[C@H]1[C@H](n2nnc(N)n2)C[C@@]23COC[C@]1(C)[C@@H]2CC[C@H]1C3=CC[C@@]2(C)[C@H](C(=O)O)[C@@](C)([C@H](C)C(C)C)CC[C@]12C)N(C)C (stereo partly drawn) [Example 49, (1S,4aR,6aS,7R,8R,10aR,10bR,12aR,14R,15R)-14-(5-amino-2H-tetrazol-2-yl)-15-[2-(dimethylamino)-1,3-dimethylbutoxy]-8-[(1R)-1,2-dimethylpropyl]-1,6,6a,7,8,9,10,10a,10b,11,12,12a-dodecahydro-1,6a,8,10a-tetramethyl-4H-1,4a-propano-2H-phenanthro[1,2-c]pyran-7-carboxylic acid] | 26.4
8 | CCC(N)(CC)CO[C@H]1[C@H](n2nnc(N)n2)C[C@@]23COC[C@]1(C)[C@@H]2CC[C@H]1C3=CC[C@@]2(C)[C@H](C(=O)O)[C@@](C)([C@H](C)C(C)C)CC[C@]12C [Example 23, (1S,4aR,6aS,7R,8R,10aR,10bR,12aR,14R,15R)-15-(2-amino-2-ethylbutoxy)-14-(5-amino-2H-tetrazol-2-yl)-8-[(1R)-1,2-dimethylpropyl]-1,6,6a,7,8,9,10,10a,10b,11,12,12a-dodecahydro-1,6a,8,10a-tetramethyl-4H-1,4a-propano-2H-phenanthro[1,2-c]pyran-7-carboxylic acid] | 7.63
9 | CC(C)[C@@H](C)[C@@]1(C)CC[C@]2(C)[C@H]3CC[C@@H]4[C@@]5(COC[C@@]4(C)[C@@H](OCC4(N)CCSCC4)[C@H](n4nnc(N)n4)C5)C3=CC[C@@]2(C)[C@@H]1C(=O)O [Example 30, (1S,4aR,6aS,7R,8R,10aR,10bR,12aR,14R,15R)-15-[(4-aminotetrahydro-2H-thiopyran-4-yl)methoxy]-14-(5-amino-2H-tetrazol-2-yl)-8-[(1R)-1,2-dimethylpropyl]-1,6,6a,7,8,9,10,10a,10b,11,12,12a-dodecahydro-1,6a,8,10a-tetramethyl-4H-1,4a-propano-2H-phenanthro[1,2-c]pyran-7-carboxylic acid] | 2.92
10 | CC(C)[C@@H](C)[C@@]1(C)CC[C@]2(C)[C@H]3CC[C@@H]4[C@@]5(COC[C@@]4(C)[C@@H](OCC(C)(N)C(C)C)[C@H](n4cnnn4)C5)C3=CC[C@@]2(C)[C@@H]1C(=O)O (stereo partly drawn) [Example 2A, (1S,4aR,6aS,7R,8R,10aR,10bR,12aR,14R,15R)-15-(2-amino-2,3-dimethylbutoxy)-8-[(1R)-1,2-dimethylpropyl]-14-(1H-tetrazol-1-yl)-1,6,6a,7,8,9,10,10a,10b,11,12,12a-dodecahydro-1,6a,8,10a-tetramethyl-4H-1,4a-propano-2H-phenanthro[1,2-c]pyran-7-carboxylic acid] | 82.8
11 | CC(C)[C@@H](C)[C@@]1(C)CC[C@]2(C)[C@H]3CC[C@@H]4[C@@]5(COC[C@@]4(C)[C@@H](OC[C@](C)(C(C)C)N(C)C)[C@H](n4nnc(N)n4)C5)C3=CC(=O)[C@@]2(C)[C@@H]1C(=O)O (single isomer, unassigned) [Example 15A] | 64.6
